Where two headings read alike, the source gives them in different places.
How the values were obtained:
CDK4 = biological target: T1, CDK4 (Homo sapiens, UniProt P11802); assay: CDK4 degradation, western blot of MM.1S cells; type: cell-based; settings: MM1.S, 16 h, read-out: D CDK4: remaining CDK4 levels
T1 construct: Percentage values are normalized to DMSO-treated MM.1S cells and the respective loading controls; endogenous in cells; host or cells: MM.1S (human multiple myeloma)
Source text: (§1) We determined the concentration of both kinases and CRBN, the latter in order to control the expression of the corresponding ligase. Since IMiDs, such as pomalidomide, cause the degradation of the lymphoid transcription factors Ikaros (IKZF1) and Aiolos (IKZF3) through the involvement of CRBN,[53],[54] this undesired effect was inspected. […] As further characteristics of CDK4/6d, the desired selectivity of CDK6 over CDK4 degradation and the unwanted influence on the IKZF1 concentration were determined. […] Next, we determined the concentration- and time-dependent activity of 11 (Fig. S2, ESI ^†).
(§2) Multiple myeloma, leukaemia, and murine cell lines:
(§3) After respective designated treatments, cells were washed with 1× PBS and lysed in IP lysis buffer (Pierce) containing HALT protease and phosphatase inhibitor cocktail (Thermo Scientific). Sodium dodecyl sulfate-polyacrylamide gel electrophoresis (SDS-PAGE) was performed with 5–20 µg of protein loaded per sample. Gel electrophoresis was carried out at a constant voltage. Proteins were transferred onto Immobilon-P transfer membranes (Millipore). Membranes were blocked with 5% milk in Tris Buffered Saline with 0.05% Tween 20 (TBS-T) followed by overnight incubation at 4 °C with shaking in primary antibodies diluted in 5% BSA in TBS-T. After incubation with respective secondary HRP-conjugated antibodies diluted in 5% milk in TBST, detection of proteins was performed using either WesternBright ECL HRP substrate or WesternBright Sirius HRP substrate (Advansta). Chemiluminescence was detected with ChemiDoc™ XRS+ System (Bio-Rad). For further detection of other proteins on the same membrane, membranes were subjected to incubation in Restore Western Blot Stripping Buffer, followed by re-blocking, and further probing of proteins was […]

CDK6 [1] = biological target: T2, CDK6 (Mus musculus, UniProt Q64261); assay: CDK6 degradation in murine cell lines 32D and Ba/F3, western blot; type: cell-based; settings: 32D and Ba/F3 cells, 0.1 μM, 16 h
T2 construct: western blotting experiments with the murine myeloid 32D cell line and the murine pro-B-cell line Ba/F3; endogenous in cells; host or cells: 32D (murine myeloid) and Ba/F3 (murine pro-B)
Source text: When bound to IMiDs, human CRBN induces the recruitment of the neosubstrates IKZF1 and IKZF3 via a Val-388 interaction,[53],[55] leading to their subsequent proteasomal degradation. […] The previously reported BRD4 degrader dBET1 was capable of binding to murine CRBN and performed as an active PROTAC in murine cells.[57],[58] To test whether our CRBN-based degrader 11 maintains CDK6 degradation across different species, we performed western blotting experiments with the murine myeloid 32D cell line and the murine pro-B-cell line Ba/F3 (Fig. 2A). […] While the activity of BSJ-03-123 (8) was attenuated at this concentration, 11 mediated on-target effects at concentrations as low as 10 nM (Fig. 2B).
Fig. 2 CDK6 degradation by CRBN-based degrader 11 is conserved in murine cell lines. (A) Human cell lines MM.1S and murine cell lines 32D and Ba/F3 were treated with vehicle, pomalidomide (POM), CDK6-selective degrader BSJ-03-123 (8), negative control 21, or PROTAC 11 at 0.1 μM for 16 h; (B) CDK6-degradation is induced in a dose-dependent manner in murine cells. Murine cell lines 32D and Ba/F3 were treated with PROTAC 11 at indicated concentrations for 16 h.
as §2
After respective designated treatments, cells were washed with 1× PBS and lysed in IP lysis buffer (Pierce) containing HALT protease and phosphatase inhibitor cocktail (Thermo Scientific). Sodium dodecyl sulfate-polyacrylamide gel electrophoresis (SDS-PAGE) was performed with 5–20 µg of protein loaded per sample. Gel electrophoresis was carried out at a constant voltage. Proteins were transferred onto Immobilon-P transfer membranes (Millipore). Membranes were blocked with 5% milk in Tris Buffered Saline with 0.05% Tween 20 (TBS-T) followed by overnight incubation at 4 °C with shaking in primary antibodies diluted in 5% BSA in TBS-T. After incubation with respective secondary HRP-conjugated antibodies diluted in 5% milk in TBST, detection of proteins was performed using either WesternBright ECL HRP substrate or WesternBright Sirius HRP substrate (Advansta). Chemiluminescence was detected with ChemiDoc™ XRS+ System (Bio-Rad). For further detection of other proteins on the same membrane, membranes were subjected to incubation in Restore Western Blot Stripping Buffer, followed by re-blocking, and further probing of proteins was carried out. Quantification was performed using ImageJ (National Institutes of Health). […]

IKZF1 = biological target: T3, IKZF1 (Homo sapiens, UniProt Q13422+Q96SW2); assay: Neosubstrate IKZF1 degradation, western blot of MM.1S cells; type: cell-based; settings: MM1.S, 16 h, normalized to DMSO (100%), read-out: D IKZF1: remaining IKZF1 levels;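 note: test concentration 0.1 µM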
T3 construct: endogenous in cells; host or cells: MM.1S (human multiple myeloma)
Source text: as §1, §2, §3

[2] = Susceptibility to hydrolysis in buffer, LC/MS; type: physicochemical; settings: 37 °C; for Stability to hydrolysis at pH 1: buffer pH 1, 24 h
Experimental: Next, we investigated the persistence of CDK6 degradation after single drug exposure. […] The differences were even more pronounced when conducting a drug washout-step, showing that while BSJ-03-123 kept CDK6 protein below 50% for a maximum of 6 h, CDK6 degradation mediated by PROTACs 27 and 34 was more persistent and stable for up to 72 h (Fig. 4E and S10, ESI ^†). […] Since these degraders mainly differ in the ligase-binding part, we hypothesized that the deviations in the long-term experiments (Fig. 5A) are due to chemical inactivation of the CRBN ligand. We then tested compounds 27, 34 (VHL-based) and BSJ-03-123 (8, CRBN-based) for susceptibility to hydrolysis. These PROTACs were incubated in two different buffers for 24 h at 37 °C and aliquots were analysed by LC/MS.
Fig. 5 (A) Quantification of long-term treatment experiments (see Fig. S9, ESI ^†) and (B) drug stability data at pH 1 and pH 7.4. Acetonitrile solutions of the PROTACs were mixed with two different buffers and incubated for 24 hours at 37 °C. Subsequently, aliquots were analysed by LC/MS and normalized to acetonitrile solutions.

[3] = elog D7.4 by chromatographic (HPLC) method; type: physicochemical; settings: Polaris C18-A column, pH 7.4, read-out: elog D7.4 (experimental distribution coefficient at pH 7.4)
Experimental: Supplementary Information: Physical Chemistry
N. Molecular Descriptor Calculation […]
O. Physicochemical Measurements
The determination of the elog D7.4 values was performed by a chromatographic method according to […]
The column was a Polaris C18-A column (2 mm I.D., 50 mm length, 3 μm particle size) from Agilent Technologies. A linear mobile phase gradient was applied with […] TRIS buffer adjusted to pH 7.4 and MeCN. Therefore, the gradient was run from 5% […]
between the runs with a constant flow-rate of 0.8 ml/min and a temperature of 25 °C. The output wavelength of the detector was set to 269.5 nm. In order to calibrate the log D7.4 to the retention time, 6 different drugs with known log D7.4 were dissolved in DMSO and 10 µl were injected […]
Approximately 1 mg of the samples was dissolved in DMSO and 5 µl were injected. Analyses were conducted in duplicates. Subsequently, the mean retention times of the analytes were taken to calculate their log D7.4 values with aid of the calibration line.

CDK6 [4] = biological target: T4, CDK6 (Homo sapiens, UniProt Q00534); assay: CDK6 degradation, western blot of MM.1S cells; type: cell-based; settings: for Selectivity ratio D CDK4/D CDK6 for the degradation of CDK6 over CDK4 / remaining activity at 0.1 µM / remaining activity at 1 µM: 16 h; for remaining activity at 0.1 µM / remaining activity at 1 µM: MM1.S, read-out: D CDK6: remaining CDK6 levels; for Time CDK6 degradation persists (CDK6 protein below 50%) after drug washout: 0.1 μM for 16 h, then washout with PBS; for Persistence of CDK6 degradation after single drug exposure (long-term treatment): no washout
T4 construct: Percentage values are normalized to DMSO-treated MM.1S cells and the respective loading controls; endogenous in cells; host or cells: MM.1S (human multiple myeloma)
Source text: as §1, §2, §3

MDA-MB-231 cells = assay: Cell viability assay (CellTiter-Glo), MDA-MB-231 breast cancer cells; type: cell-based, human; settings: 96 h
Experimental: Breast cancer cell lines:
To access the compound effect on cell viability, cells were plated in 384-well tissue culture-treated plates (Greiner Bio One). Twenty-four hours later, tested compounds were added into culture to the desired concentrations. Cell viability was measured by using CellTiter-Glo® Luminescent Cell Viability Assay (Promega) at day 4 or day 7 post-treatment and normalized by non-treated controls. […]
(§4) Dose response curves were modeled and plotted by using GraphPad Prism software (GraphPad Software). Statistical analysis was performed using GraphPad Prism software (GraphPad Software).
(§5) Variance of biological replicates is represented as the standard error of the mean (SEM) or as the […]

[5] = system: MM.1S, LP-1, AMO-1, MOLM-13, HEL, KG-1, K562, Nalm-6; assay: Cell viability assay (CellTiter-Glo), multiple myeloma and leukemia cell lines; type: cell-based, human; settings: 96 h, 0.1 or 1 μM
Experimental: as §2
(§6) Cells were seeded in 96-well plates with media containing indicated concentrations of respective compounds and plates were incubated at 37 °C for 96 hours. Readout was performed with CellTiter-Glo® Luminescent Cell Viability Assay (Promega) according to the manufacturer’s protocol and luminescence was measured with POLARStar Omega plate reader (BMG LabTech). All results were normalized to non-treated conditions and data represent mean ±SD of biological triplicates. […]
as §4, §5

HEL cells = assay: Cell viability assay (CellTiter-Glo), HEL cells; type: cell-based; settings: Homo sapiens, 96 h
Experimental: as §2, §6, §4, §5

[6] = design: method as in earlier work; settings: calibration compounds; cited from earlier work
[7] = 0.1 μM, MM.1S cells, normalized to DMSO (100%)
[8] = 1 μM, MM.1S cells, normalized to DMSO (100%)

T4 sequence (Q00534 whole entry): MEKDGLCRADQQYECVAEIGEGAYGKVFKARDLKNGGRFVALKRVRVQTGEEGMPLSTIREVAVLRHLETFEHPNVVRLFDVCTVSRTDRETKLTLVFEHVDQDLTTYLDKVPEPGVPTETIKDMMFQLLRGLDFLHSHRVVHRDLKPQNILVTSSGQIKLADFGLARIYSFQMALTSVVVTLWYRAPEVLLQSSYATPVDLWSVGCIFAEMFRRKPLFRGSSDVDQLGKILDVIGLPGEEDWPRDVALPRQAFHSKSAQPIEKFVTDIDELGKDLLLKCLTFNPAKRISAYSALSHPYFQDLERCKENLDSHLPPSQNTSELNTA
T1 sequence (P11802 whole entry): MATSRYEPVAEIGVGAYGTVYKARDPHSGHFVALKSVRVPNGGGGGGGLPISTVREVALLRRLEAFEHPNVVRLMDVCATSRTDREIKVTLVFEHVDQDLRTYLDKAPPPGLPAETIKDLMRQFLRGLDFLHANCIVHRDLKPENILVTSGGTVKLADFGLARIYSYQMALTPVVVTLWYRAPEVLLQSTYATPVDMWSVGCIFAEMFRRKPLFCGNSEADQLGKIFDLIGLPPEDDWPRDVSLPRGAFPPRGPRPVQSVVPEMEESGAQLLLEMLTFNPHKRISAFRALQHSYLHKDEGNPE
T3 sequence (Q13422 whole entry): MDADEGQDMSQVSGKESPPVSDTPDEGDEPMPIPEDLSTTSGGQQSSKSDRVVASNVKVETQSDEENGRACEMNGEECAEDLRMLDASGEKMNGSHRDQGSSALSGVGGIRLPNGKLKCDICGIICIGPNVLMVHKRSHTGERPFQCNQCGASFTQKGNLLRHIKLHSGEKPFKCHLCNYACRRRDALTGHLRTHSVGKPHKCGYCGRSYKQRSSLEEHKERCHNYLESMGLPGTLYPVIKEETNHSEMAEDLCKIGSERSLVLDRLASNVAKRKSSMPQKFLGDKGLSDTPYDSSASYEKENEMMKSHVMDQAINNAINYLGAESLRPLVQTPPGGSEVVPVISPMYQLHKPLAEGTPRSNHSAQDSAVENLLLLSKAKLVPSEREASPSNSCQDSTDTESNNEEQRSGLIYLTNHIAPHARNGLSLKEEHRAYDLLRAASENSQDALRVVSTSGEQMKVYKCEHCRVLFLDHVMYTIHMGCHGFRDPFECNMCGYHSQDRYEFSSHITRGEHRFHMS
T3 sequence (Q96SW2 whole entry): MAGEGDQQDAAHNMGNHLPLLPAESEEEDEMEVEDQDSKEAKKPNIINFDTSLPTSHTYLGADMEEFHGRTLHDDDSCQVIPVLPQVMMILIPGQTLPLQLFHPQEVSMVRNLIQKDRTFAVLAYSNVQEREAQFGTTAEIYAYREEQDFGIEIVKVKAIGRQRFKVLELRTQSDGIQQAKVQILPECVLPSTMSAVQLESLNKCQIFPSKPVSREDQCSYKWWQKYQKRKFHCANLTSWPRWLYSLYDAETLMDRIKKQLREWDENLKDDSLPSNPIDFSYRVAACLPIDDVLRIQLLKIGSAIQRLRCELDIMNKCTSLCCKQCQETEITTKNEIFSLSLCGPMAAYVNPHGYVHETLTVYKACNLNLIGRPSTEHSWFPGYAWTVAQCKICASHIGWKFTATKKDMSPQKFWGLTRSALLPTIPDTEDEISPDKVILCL
T3 sequence (Q16531 whole entry partner): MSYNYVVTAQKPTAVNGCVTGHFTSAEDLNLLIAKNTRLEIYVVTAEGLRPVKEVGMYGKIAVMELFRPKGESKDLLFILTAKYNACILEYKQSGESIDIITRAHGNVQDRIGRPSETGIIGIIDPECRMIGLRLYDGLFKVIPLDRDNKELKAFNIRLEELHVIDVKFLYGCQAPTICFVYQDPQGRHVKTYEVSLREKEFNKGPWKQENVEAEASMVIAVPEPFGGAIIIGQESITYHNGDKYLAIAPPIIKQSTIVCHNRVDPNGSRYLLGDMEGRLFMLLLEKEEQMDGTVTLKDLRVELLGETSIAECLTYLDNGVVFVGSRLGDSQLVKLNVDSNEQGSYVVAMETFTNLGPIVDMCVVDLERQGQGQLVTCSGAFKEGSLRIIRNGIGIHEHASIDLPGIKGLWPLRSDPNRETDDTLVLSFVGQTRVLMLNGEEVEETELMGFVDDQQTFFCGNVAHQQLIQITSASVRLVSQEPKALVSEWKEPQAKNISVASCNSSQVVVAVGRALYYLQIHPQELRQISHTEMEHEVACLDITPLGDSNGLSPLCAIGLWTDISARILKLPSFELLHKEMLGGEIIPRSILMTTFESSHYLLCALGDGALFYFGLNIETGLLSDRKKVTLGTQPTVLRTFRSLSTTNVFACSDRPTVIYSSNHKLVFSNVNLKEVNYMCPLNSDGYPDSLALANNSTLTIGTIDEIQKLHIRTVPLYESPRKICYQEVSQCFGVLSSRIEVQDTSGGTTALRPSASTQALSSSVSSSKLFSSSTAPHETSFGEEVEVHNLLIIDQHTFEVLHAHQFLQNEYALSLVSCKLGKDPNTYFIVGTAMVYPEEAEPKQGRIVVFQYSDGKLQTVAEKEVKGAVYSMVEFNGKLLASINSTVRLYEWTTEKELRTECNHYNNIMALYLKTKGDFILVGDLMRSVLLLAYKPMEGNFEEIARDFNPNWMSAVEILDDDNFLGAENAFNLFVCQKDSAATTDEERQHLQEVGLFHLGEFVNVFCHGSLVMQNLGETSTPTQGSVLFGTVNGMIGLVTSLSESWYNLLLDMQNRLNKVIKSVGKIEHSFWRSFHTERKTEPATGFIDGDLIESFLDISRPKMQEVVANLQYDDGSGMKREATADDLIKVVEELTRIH
T2 sequence (Q64261 whole entry): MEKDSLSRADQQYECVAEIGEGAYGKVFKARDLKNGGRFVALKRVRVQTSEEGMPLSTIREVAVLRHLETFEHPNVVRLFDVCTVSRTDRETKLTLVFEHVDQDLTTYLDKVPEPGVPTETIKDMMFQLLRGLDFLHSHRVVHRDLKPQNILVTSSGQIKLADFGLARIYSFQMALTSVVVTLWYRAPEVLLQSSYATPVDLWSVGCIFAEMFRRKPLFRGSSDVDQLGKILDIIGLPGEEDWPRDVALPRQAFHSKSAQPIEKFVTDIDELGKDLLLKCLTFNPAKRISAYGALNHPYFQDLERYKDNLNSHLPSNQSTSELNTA

Row | Structure (SMILES) | remaining activity at 0.1 µM (CDK4; [7]) [%] | Stability to hydrolysis at pH 1 [2] | chromatographic logD [3] | Selectivity ratio D CDK4/D CDK6 for the degradation of CDK6 over CDK4 (CDK6 [4]; 0.1 μM, MM.1S cells) | remaining activity at 0.1 µM (CDK6 [4]; [7]) [%] | remaining activity at 1 µM (CDK6 [4]; [8]) [%] | Time CDK6 degradation persists (CDK6 protein below 50%) after drug washout (CDK6 [4]; MM.1S cells) | Persistence of CDK6 degradation after single drug exposure (long-term treatment) (CDK6 [4]; MM.1S cells) | Lit. log D7.4 [6] | further results
1 | CC(=O)c1c(C)c2cnc(Nc3ccc(N4CCN(CCOCCOCCOCCNC(=O)COc5cccc6c5C(=O)N(C5CCC(=O)NC5=O)C6=O)CC4)cn3)nc2n(C2CCCC2)c1=O (stereo not drawn) [8 (BSJ-03-123), BSJ-03-123, reference compound] | 27 | stable | 2.5 | 4.9 | 5.5 | 2.1 | ≤ 6 h | began to recover after 24 h | – | CDK6 degradation in murine cells (CDK6 [1]): attenuated; remaining activity at 0.1 µM (IKZF1): 82%; Stability to hydrolysis at pH 7.4 ([2]; buffer pH 7.4, 24 h): pronounced decomposition
2 | CC(=O)c1c(C)c2cnc(Nc3ccc(N4CCN(CCOCCOCCOCC(=O)N[C@H](C(=O)N5C[C@H](O)C[C@H]5C(=O)N[C@@H](C)c5ccc(-c6scnc6C)cc5)C(C)(C)C)CC4)cn3)nc2n(C2CCCC2)c1=O [27 (CST620)] | 33 | stable | 2.9 | 19 | 1.7 | 15 | up to 72 h | satisfactory CDK6 level suppression even after 96 h | – | Inhibitory activity on cell viability relative to palbociclib (MDA-MB-231 cells): inhibitory activity comparable to palbociclib; Effect on cell proliferation ([5]; MM.1S, LP-1, AMO-1, MOLM-13, HEL, KG-1, K562, Nalm-6): inhibited cell proliferation; IC50 (HEL cells): 1.54 µM
3 | COc1ccc([C@@H]2Sc3ccccc3N(CCN(C)C)C(=O)[C@@H]2OC(C)=O)cc1 [Diltiazem] | – | – | – | – | – | – | – | – | 2.70 | –
4 | COCCc1ccc(OCC(O)CNC(C)C)cc1 (stereo not drawn) [Metoprolol] | – | – | – | – | – | – | – | – | –0.06 | –
5 | CC1(C)C(C=C(Cl)Cl)C1C(=O)OCc1cccc(Oc2ccccc2)c1 (stereo not drawn) [Permethrin] | – | – | – | – | – | – | – | – | 6.50 | –
6 | CN[C@@H](C)C(=O)N[C@H](C(=O)N1C[C@@H](Oc2cccc(OCCOCCOCCOCCN3CCN(c4ccc(Nc5ncc6c(C)c(C(C)=O)c(=O)n(C7CCCC7)c6n5)nc4)CC3)c2)C[C@H]1C(=O)N[C@@H]1CCCc2ccccc21)C1CCCCC1 [compound 35] | – | – | 4.3 | – | – | – | – | – | – | remaining activity at 0.1 µM (CDK4): 77%; Cell viability compared with palbociclib, VHL-series PROTACs and IAP ligand 5 ([5]; MM.1S and Nalm-6 cells): more strongly impaired; remaining activity at 0.1 µM (CDK6 [4]): 75%; remaining activity at 1 µM (CDK6 [4]): 18%
